Measurements: ChEMBL document CHEMBL1201862, “PubChem BioAssay data set” (2004)
Active and inactive are the calls of the source.

Legend:
[1] = SAR analysis of small molecule activators of Apaf-1 using a LZ-Caspase-9/Caspase-3 Fluorescent Selectivity assay - Set 2.; type: functional; conditions: read-out: EC50_Mean
[2] = target: T1, Apoptotic protease-activating factor 1 (Homo sapiens, UniProt O14727); experiment: SAR analysis of small molecule Activators of Apaf-1 in a Fluorescent assay - set 2.; type: functional; conditions: read-out: EC50_Mean
T1 sequence (O14727 whole entry): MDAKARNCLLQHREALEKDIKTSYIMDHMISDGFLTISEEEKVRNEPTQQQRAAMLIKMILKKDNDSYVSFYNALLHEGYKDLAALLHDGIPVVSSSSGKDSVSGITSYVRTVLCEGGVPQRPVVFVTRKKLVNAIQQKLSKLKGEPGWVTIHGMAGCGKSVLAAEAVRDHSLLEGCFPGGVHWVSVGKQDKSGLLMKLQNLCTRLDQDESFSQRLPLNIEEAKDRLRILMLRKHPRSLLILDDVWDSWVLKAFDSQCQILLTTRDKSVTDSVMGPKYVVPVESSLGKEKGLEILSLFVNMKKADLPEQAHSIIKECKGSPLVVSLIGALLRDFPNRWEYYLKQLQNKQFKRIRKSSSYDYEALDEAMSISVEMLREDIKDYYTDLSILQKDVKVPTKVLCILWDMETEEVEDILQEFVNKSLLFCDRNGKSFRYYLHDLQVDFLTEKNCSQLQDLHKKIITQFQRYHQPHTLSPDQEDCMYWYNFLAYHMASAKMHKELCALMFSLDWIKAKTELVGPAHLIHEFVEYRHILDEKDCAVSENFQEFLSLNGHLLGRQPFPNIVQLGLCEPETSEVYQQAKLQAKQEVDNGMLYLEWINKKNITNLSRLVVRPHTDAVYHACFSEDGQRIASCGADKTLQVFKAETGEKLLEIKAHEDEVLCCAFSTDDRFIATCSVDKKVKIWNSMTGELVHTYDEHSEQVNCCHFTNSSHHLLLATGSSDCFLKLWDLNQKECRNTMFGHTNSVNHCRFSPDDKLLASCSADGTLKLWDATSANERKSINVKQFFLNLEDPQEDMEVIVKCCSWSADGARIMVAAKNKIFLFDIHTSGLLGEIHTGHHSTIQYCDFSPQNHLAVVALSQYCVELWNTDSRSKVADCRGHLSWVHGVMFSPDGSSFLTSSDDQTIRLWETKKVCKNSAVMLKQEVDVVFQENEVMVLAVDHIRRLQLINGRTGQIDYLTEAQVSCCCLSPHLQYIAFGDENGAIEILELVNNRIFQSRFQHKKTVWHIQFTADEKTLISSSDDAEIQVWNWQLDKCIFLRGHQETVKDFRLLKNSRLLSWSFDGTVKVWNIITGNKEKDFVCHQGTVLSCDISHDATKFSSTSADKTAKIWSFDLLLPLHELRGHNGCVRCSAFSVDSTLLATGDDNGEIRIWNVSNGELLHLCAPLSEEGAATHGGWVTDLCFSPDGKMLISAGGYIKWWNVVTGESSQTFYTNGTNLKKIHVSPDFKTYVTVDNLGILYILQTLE

[3] = target: Melanin-concentrating hormone receptor 1 (Homo sapiens, UniProt Q99705); experiment: Late-stage fluorescence-based counterscreen for antagonists of the G-protein coupled receptor 7 (GPR7): cell-based dose response assay to identify antagonists of the melanin-concentrating hormone receptor 1 (MCHR1) Set 6.; type: functional
Melanin-concentrating hormone receptor 1, sequence (Q99705 whole entry): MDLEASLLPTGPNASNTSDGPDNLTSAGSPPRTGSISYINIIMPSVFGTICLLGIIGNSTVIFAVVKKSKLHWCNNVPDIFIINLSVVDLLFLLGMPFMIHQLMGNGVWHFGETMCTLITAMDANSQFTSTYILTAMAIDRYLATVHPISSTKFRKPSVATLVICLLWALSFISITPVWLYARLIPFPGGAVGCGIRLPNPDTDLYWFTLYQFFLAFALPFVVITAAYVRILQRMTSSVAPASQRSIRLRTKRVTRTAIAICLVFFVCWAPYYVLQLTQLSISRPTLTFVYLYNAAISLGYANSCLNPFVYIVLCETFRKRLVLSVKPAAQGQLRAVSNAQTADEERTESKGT

[4] = target: 26S proteasome non-ATPase regulatory subunit 14 (Homo sapiens, UniProt O00487); experiment: inhibition of proteasome subunit RPN11 – biochemical, fluorescence polarization, uHTS hits, confirmation (AID 602368); type: functional
26S proteasome non-ATPase regulatory subunit 14, sequence (O00487 whole entry): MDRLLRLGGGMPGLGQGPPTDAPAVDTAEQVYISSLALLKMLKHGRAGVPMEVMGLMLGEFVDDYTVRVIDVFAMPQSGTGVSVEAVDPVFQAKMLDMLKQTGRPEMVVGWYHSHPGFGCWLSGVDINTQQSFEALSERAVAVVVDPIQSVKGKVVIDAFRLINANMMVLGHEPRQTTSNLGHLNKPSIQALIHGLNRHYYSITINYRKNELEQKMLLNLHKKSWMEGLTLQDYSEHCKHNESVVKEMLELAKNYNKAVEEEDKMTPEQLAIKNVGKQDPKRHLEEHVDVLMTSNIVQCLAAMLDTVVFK

Prothrombin = Prothrombin (Bos taurus, UniProt P00735); experiment: thrombin protease inhibitors – biochemical, fluorescence polarization, uHTS hits, dose response (AID 602369); type: functional
[5] = target: 72 kDa type IV collagenase (Homo sapiens, UniProt P08253); experiment: Dose Response validation of uHTS RPN11 inhibitor hits using a MMP-2 Fluorescence assay.; type: functional
72 kDa type IV collagenase, sequence (P08253 whole entry): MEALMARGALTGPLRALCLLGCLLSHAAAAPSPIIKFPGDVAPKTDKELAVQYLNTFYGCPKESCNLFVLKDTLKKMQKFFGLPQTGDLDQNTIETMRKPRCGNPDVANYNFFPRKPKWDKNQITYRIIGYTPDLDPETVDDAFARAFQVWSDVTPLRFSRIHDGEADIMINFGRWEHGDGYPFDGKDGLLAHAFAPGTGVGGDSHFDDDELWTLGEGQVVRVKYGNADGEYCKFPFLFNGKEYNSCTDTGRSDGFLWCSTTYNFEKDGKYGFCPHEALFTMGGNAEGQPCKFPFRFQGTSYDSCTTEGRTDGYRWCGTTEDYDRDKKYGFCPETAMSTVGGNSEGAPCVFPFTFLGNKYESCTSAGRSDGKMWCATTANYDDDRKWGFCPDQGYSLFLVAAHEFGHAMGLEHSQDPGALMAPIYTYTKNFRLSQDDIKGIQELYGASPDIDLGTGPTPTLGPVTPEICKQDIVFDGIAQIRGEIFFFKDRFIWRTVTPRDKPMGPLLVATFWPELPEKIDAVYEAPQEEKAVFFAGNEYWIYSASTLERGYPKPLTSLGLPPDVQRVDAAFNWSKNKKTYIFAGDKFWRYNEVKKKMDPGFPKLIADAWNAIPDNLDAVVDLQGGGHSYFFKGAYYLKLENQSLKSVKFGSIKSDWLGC

[6] = Trypanosoma cruzi growth suppression in host cells – NIH3T3 host cells, beta-gal luminescence, confirmation (AID 2044); type: functional, cell-based;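 further: intracellular parasites grown in NIH/3T3 mouse fibroblasts as host cells; luminescent beta-galactosidase reporter signal from transgenic T. cruzi replicating inside host cells; inhibitors lower the luminescence signal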
[7] = target: T2, V-type proton ATPase subunit c' (Saccharomyces cerevisiae S288c, UniProt P32842); experiment: Dose Response of Small Molecules that Regulate V-ATPase Proton Transport in Yeast using pHLuorin, Powder Set1.; type: functional; conditions: read-out: EC50_MICROM
T2 sequence (P32842 whole entry): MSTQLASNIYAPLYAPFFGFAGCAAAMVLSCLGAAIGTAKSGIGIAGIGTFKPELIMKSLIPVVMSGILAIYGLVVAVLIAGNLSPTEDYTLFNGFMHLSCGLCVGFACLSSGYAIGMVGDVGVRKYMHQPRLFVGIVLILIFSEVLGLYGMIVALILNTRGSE

[8] = target: T2, V-type proton ATPase subunit c'; experiment: Dose Response of Small Molecules that Regulate V-ATPase Proton Transport in Yeast using pHLuorin, Cherry Pick 2.; type: functional; conditions: read-out: EC50_MICROM
[9] = target: T2, V-type proton ATPase subunit c'; experiment: Dose Response with BCECF Assay for V-ATPase inhibitors that increase vacuolar pH, Powder Set 1.; type: functional; conditions: read-out: EC50_MICROM
[10] = NIH3T3 cell viability loss – ATP luminescence, mouse fibroblasts, counter-screen, dose response (AID 2010); type: functional, cell-based;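 further: cells exposed to compound for about 90 hours before reading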

In the case of `COc1ccc(OC)c(C2=NOC(C(=O)O)C2)c1` (stereo unspecified), the EC50 [1] is reported as > 100000 nM (inactive) and the EC50 [2] is reported as > 100000 nM (inactive).
With `COC(=O)c1ccccc1Cn1ncc(Cl)c(Oc2ccc(OC)cc2)c1=O` the IC50 [3] was 1160 nM (active).
For `O=[N+]([O-])c1ccc(N/N=C/c2sc(N3CCOCC3)nc2-c2ccccc2)c(S(=O)(=O)Nc2ccccc2Cl)c1`, the IC50 [4] was 658 nM (active), the IC50 (Prothrombin) was 564 nM (active) and the IC50 [5] was > 100000 nM (inactive).
For `O=C(c1ccc([N+](=O)[O-])o1)N1CCN(c2nc3c(F)cc(F)cc3s2)CC1`, the EC50 [6] was 466 nM (active), the EC50 [7] was 1930 nM (active) and the EC50 [8] was 8900 nM (active). The EC50 [9] was 390 nM (active) and the EC50 [10] was 22400 nM (active).
